Results on 7 compounds are retold here after patent US20230143604A1, “QW DOSING OF GIP RECEPTOR AGONIST PEPTIDE COMPOUNDS AND USES THEREOF” (TAKEDA PHARMACEUTICAL COMPANY LIMITED, priority 2020, published 2023).

Molecules are shown by their SMILES. Starred links: 1 amine or outer side, 2 acyl side, 3 side chain; linkers in the order of their positions; H or OH if unused. Non-standard residues stand in square brackets, D forms with d. Residues, ends and D or L forms follow the SMILES beside them. Groups on a side chain read outwards from the residue. *: point of attachment. C20 diacid = O=C(O)CCCCCCCCCCCCCCCCCCC(=O)*; C18 diacid = O=C(O)CCCCCCCCCCCCCCCCC(=O)*; C17 diacid = O=C(O)CCCCCCCCCCCCCCCC(=O)*; γGlu = O=C(O)[C@H](CCC(=O)[*:2])N[*:1]; NMeY = CN[C@@H](Cc1ccc(O)cc1)C(=O)O; AEEA = NCCOCCOCC(=O)O; Aib = CC(C)(N)C(=O)O

A short description of the data set: Solubility in phosphate buffer pH 7.4. The procedure, abridged: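 Solubility at pH 7.4 determined by stepwise addition of 200 mM phosphate buffer in 100 μL increments to 3 mg peptide, mixing briefly each time, until no insoluble material remained, then measured by liquid chromatography.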

By solubility is commonly meant how much of the substance goes into solution per volume. High values mean a readily soluble substance, low ones a poorly soluble substance. Compound `CC[C@H](C)[C@H](NC(=O)[C@H](CO)NC(=O)[C@H](Cc1ccc(O)cc1)NC(=O)[C@H](CC(=O)O)NC(=O)[C@H](CO)NC(=O)[C@@H](NC(=O)[C@H](Cc1ccccc1)NC(=O)[C@@H](NC(=O)CNC(=O)[C@H](CCC(=O)O)NC(=O)C(C)(C)NC(=O)[C@H](Cc1ccc(O)cc1)NC)[C@@H](C)O)[C@@H](C)CC)C(=O)N[C@@H](C)C(=O)N[C@@H](CC(C)C)C(=O)N[C@@H](CC(=O)O)C(=O)N[C@@H](CCCNC(=N)N)C(=O)NC(C)(C)C(=O)N[C@@H](CCCCNC(=O)COCCOCCNC(=O)COCCOCCNC(=O)CC[C@H](NC(=O)CC[C@H](NC(=O)CCCCCCCCCCCCCCCCCCC(=O)O)C(=O)O)C(=O)O)C(=O)N[C@@H](CCC(N)=O)C(=O)NC(C)(C)C(=O)N[C@@H](CC(N)=O)C(=O)N[C@@H](Cc1ccccc1)C(=O)N[C@H](C(=O)N[C@@H](CC(N)=O)C(=O)N[C@@H](Cc1c[nH]c2ccccc12)C(=O)N[C@@H](CC(C)C)C(=O)N[C@@H](CC(C)C)C(=O)N[C@@H](C)C(=O)N[C@@H](CCC(N)=O)C(=O)N[C@@H](CO)C(=O)N1CCC[C@H]1C(=O)N[C@@H](CO)C(=O)N[C@@H](CO)C(=O)NCC(=O)N[C@@H](C)C(=O)N1CCC[C@H]1C(=O)N1CCC[C@H]1C(=O)N1CCC[C@H]1C(=O)N[C@@H](CO)C(N)=O)C(C)C` [Compound 99] (H-[NMeY][Aib]EGTFISDYSIALDR[Aib]K([AEEA-AEEA-γGlu-γGlu-C20 diacid])Q[Aib]NFVNWLLAQSPSSGAPPPS-NH2) returned a solubility (pH 7.4, aqueous buffer, pH 7.4 Phosphate Buffer - Solubility, 200 mM Phosphate buffer pH 7.4) of at least 60 mg/mL.

With `CC[C@H](C)[C@H](NC(=O)[C@H](Cc1ccccc1)NC(=O)[C@@H](NC(=O)CNC(=O)[C@H](CCC(=O)O)NC(=O)C(C)(C)NC(=O)[C@@H](N)Cc1ccc(O)cc1)[C@@H](C)O)C(=O)N[C@@H](CO)C(=O)N[C@@H](CC(=O)O)C(=O)N[C@@H](Cc1ccc(O)cc1)C(=O)N[C@@H](CO)C(=O)N[C@H](C(=O)NC(C)(C)C(=O)N[C@@H](CC(C)C)C(=O)N[C@@H](CC(=O)O)C(=O)N[C@@H](CCCCN)C(=O)N[C@@H](C)C(=O)N[C@@H](CCCCNC(=O)COCCOCCNC(=O)COCCOCCNC(=O)CC[C@H](NC(=O)CCCCCCCCCCCCCCCCC(=O)O)C(=O)O)C(=O)N[C@@H](CCC(N)=O)C(=O)N[C@@H](CCC(N)=O)C(=O)N[C@@H](CC(=O)O)C(=O)N[C@@H](Cc1ccccc1)C(=O)N[C@H](C(=O)N[C@@H](CCC(=O)O)C(=O)N[C@@H](Cc1c[nH]c2ccccc12)C(=O)N[C@@H](CC(C)C)C(=O)N[C@@H](CC(C)C)C(=O)N[C@@H](C)C(=O)N[C@@H](CCC(N)=O)C(=O)N[C@@H](CCCNC(=N)N)C(=O)NCC(=O)O)C(C)C)[C@@H](C)CC` [Compound 169] (H-Y[Aib]EGTFISDYSI[Aib]LDKAK([AEEA-AEEA-γGlu-C18 diacid])QQDFVEWLLAQRG-OH), the solubility (pH 7.4) is at least 15 mg/mL and the solubility (pH 7.4, aqueous buffer) is at least 30 mg/mL.

Consider `CC[C@H](C)[C@H](NC(=O)[C@H](Cc1ccccc1)NC(=O)[C@@H](NC(=O)CNC(=O)[C@H](CCC(=O)O)NC(=O)C(C)(C)NC(=O)[C@@H](N)Cc1ccc(O)cc1)[C@@H](C)O)C(=O)N[C@@H](CO)C(=O)N[C@@H](CC(=O)O)C(=O)N[C@@H](Cc1ccc(O)cc1)C(=O)N[C@@H](CO)C(=O)N[C@H](C(=O)NC(C)(C)C(=O)N[C@@H](CC(C)C)C(=O)N[C@@H](CC(=O)O)C(=O)N[C@@H](CCCNC(=N)N)C(=O)NC(C)(C)C(=O)N[C@@H](C)C(=O)N[C@@H](CCC(N)=O)C(=O)NC(C)(C)C(=O)N[C@@H](CCCCNC(=O)COCCOCCNC(=O)COCCOCCNC(=O)CC[C@H](NC(=O)CC[C@H](NC(=O)CCCCCCCCCCCCCCCCC(=O)O)C(=O)O)C(=O)O)C(=O)N[C@@H](Cc1ccccc1)C(=O)N[C@H](C(=O)N[C@@H](CC(N)=O)C(=O)N[C@@H](Cc1c[nH]c2ccccc12)C(=O)N[C@@H](CC(C)C)C(=O)N[C@@H](CC(C)C)C(=O)N[C@@H](C)C(=O)N[C@@H](CCC(N)=O)C(=O)N[C@@H](CCCNC(=N)N)C(=O)NCC(=O)O)C(C)C)[C@@H](C)CC` [Compound 141] (H-Y[Aib]EGTFISDYSI[Aib]LDR[Aib]AQ[Aib]K([AEEA-AEEA-γGlu-γGlu-C18 diacid])FVNWLLAQRG-OH), for which the solubility is at least 15 mg/mL (pH 7.4) and at least 30 mg/mL (pH 7.4, aqueous buffer).

Compound `CC[C@H](C)[C@H](NC(=O)[C@H](CO)NC(=O)[C@H](Cc1ccc(O)cc1)NC(=O)[C@H](CC(=O)O)NC(=O)[C@H](CO)NC(=O)[C@@H](NC(=O)[C@H](Cc1ccccc1)NC(=O)[C@@H](NC(=O)CNC(=O)[C@H](CCC(=O)O)NC(=O)C(C)(C)NC(=O)[C@H](Cc1ccc(O)cc1)NC)[C@@H](C)O)[C@@H](C)CC)C(=O)N[C@@H](C)C(=O)N[C@@H](CC(C)C)C(=O)N[C@@H](CC(=O)O)C(=O)N[C@@H](CCCNC(=N)N)C(=O)N[C@H](C(=O)N[C@@H](CCCCNC(=O)COCCOCCNC(=O)COCCOCCNC(=O)CC[C@H](NC(=O)CC[C@H](NC(=O)CCCCCCCCCCCCCCCCC(=O)O)C(=O)O)C(=O)O)C(=O)N[C@@H](CCC(N)=O)C(=O)N[C@@H](CCC(N)=O)C(=O)N[C@@H](CC(=O)O)C(=O)N[C@@H](Cc1ccccc1)C(=O)N[C@H](C(=O)N[C@@H](CC(N)=O)C(=O)N[C@@H](Cc1c[nH]c2ccccc12)C(=O)N[C@@H](CC(C)C)C(=O)N[C@@H](CC(C)C)C(=O)N[C@@H](C)C(=O)N[C@@H](CCC(N)=O)C(=O)N[C@@H](CCCNC(=N)N)C(=O)N1CCC[C@H]1C(=O)N[C@@H](CO)C(=O)N[C@@H](CO)C(=O)NCC(=O)O)C(C)C)[C@@H](C)CC` [Compound 287] (H-[NMeY][Aib]EGTFISDYSIALDRIK([AEEA-AEEA-γGlu-γGlu-C18 diacid])QQDFVNWLLAQRPSSG-OH) gave a solubility (pH 7.4, aqueous buffer) below 6 mg/mL.

In the case of `CC[C@H](C)[C@H](NC(=O)[C@H](Cc1ccccc1)NC(=O)[C@@H](NC(=O)CNC(=O)[C@H](CCC(=O)O)NC(=O)C(C)(C)NC(=O)[C@H](Cc1ccc(O)cc1)NC)[C@@H](C)O)C(=O)N[C@@H](CO)C(=O)N[C@@H](CC(=O)O)C(=O)N[C@@H](Cc1ccc(O)cc1)C(=O)N[C@@H](CO)C(=O)N[C@H](C(=O)NC(C)(C)C(=O)N[C@@H](CC(C)C)C(=O)N[C@@H](CC(=O)O)C(=O)N[C@@H](CCCNC(=N)N)C(=O)NC(C)(C)C(=O)N[C@@H](CCCCNC(=O)COCCOCCNC(=O)COCCOCCNC(=O)CC[C@H](NC(=O)CC[C@H](NC(=O)CCCCCCCCCCCCCCCCC(=O)O)C(=O)O)C(=O)O)C(=O)N[C@@H](CCC(N)=O)C(=O)NC(C)(C)C(=O)N[C@@H](CC(N)=O)C(=O)N[C@@H](Cc1ccccc1)C(=O)N[C@H](C(=O)N[C@@H](CC(N)=O)C(=O)N[C@@H](Cc1c[nH]c2ccccc12)C(=O)N[C@@H](CC(C)C)C(=O)N[C@@H](CC(C)C)C(=O)N[C@@H](C)C(=O)N[C@@H](CCC(N)=O)C(=O)N[C@@H](CCCNC(=N)N)C(=O)NCC(=O)O)C(C)C)[C@@H](C)CC` [Compound 74] (H-[NMeY][Aib]EGTFISDYSI[Aib]LDR[Aib]K([AEEA-AEEA-γGlu-γGlu-C18 diacid])Q[Aib]NFVNWLLAQRG-OH), the solubility is, setting by setting: (pH 7.4) at least 15 mg/mL; (pH 7.4, aqueous buffer) at least 30 mg/mL.

Take `CC[C@H](C)[C@H](NC(=O)[C@H](CO)NC(=O)[C@H](Cc1ccc(O)cc1)NC(=O)[C@H](CC(=O)O)NC(=O)[C@H](CO)NC(=O)[C@@H](NC(=O)[C@H](Cc1ccccc1)NC(=O)[C@@H](NC(=O)CNC(=O)[C@H](CCC(=O)O)NC(=O)C(C)(C)NC(=O)[C@H](Cc1ccc(O)cc1)NC)[C@@H](C)O)[C@@H](C)CC)C(=O)N[C@@H](C)C(=O)N[C@@H](CC(C)C)C(=O)N[C@@H](CC(=O)O)C(=O)N[C@@H](CCCNC(=N)N)C(=O)NC(C)(C)C(=O)N[C@@H](CCCCNC(=O)COCCOCCNC(=O)COCCOCCNC(=O)CC[C@H](NC(=O)CC[C@H](NC(=O)CCCCCCCCCCCCCCCC(=O)O)C(=O)O)C(=O)O)C(=O)N[C@@H](CCC(N)=O)C(=O)NC(C)(C)C(=O)N[C@@H](CC(N)=O)C(=O)N[C@@H](Cc1ccccc1)C(=O)N[C@H](C(=O)N[C@@H](CC(N)=O)C(=O)N[C@@H](Cc1c[nH]c2ccccc12)C(=O)N[C@@H](CC(C)C)C(=O)N[C@@H](CC(C)C)C(=O)N[C@@H](C)C(=O)N[C@@H](CCC(N)=O)C(=O)N[C@@H](CO)C(=O)NCC(=O)NCC(=O)NCC(=O)NCC(=O)N[C@@H](CO)C(N)=O)C(C)C` [Compound 31] (H-[NMeY][Aib]EGTFISDYSIALDR[Aib]K([AEEA-AEEA-γGlu-γGlu-C17 diacid])Q[Aib]NFVNWLLAQSGGGGS-NH2): the solubility is, setting by setting: (pH 7.4) at least 15 mg/mL; (pH 7.4, aqueous buffer) at least 30 mg/mL.

Consider `CC[C@H](C)[C@H](NC(=O)[C@H](CO)NC(=O)[C@H](Cc1ccc(O)cc1)NC(=O)[C@H](CC(=O)O)NC(=O)[C@H](CO)NC(=O)[C@@H](NC(=O)[C@H](Cc1ccccc1)NC(=O)[C@@H](NC(=O)CNC(=O)[C@H](CCC(=O)O)NC(=O)C(C)(C)NC(=O)[C@H](Cc1ccc(O)cc1)NC)[C@@H](C)O)[C@@H](C)CC)C(=O)N[C@@H](C)C(=O)N[C@@H](CC(C)C)C(=O)N[C@@H](CC(=O)O)C(=O)N[C@@H](CCCNC(=N)N)C(=O)NC(C)(C)C(=O)N[C@@H](C)C(=O)N[C@@H](CCC(N)=O)C(=O)NC(C)(C)C(=O)N[C@@H](CCCCNC(=O)COCCOCCNC(=O)COCCOCCNC(=O)CC[C@H](NC(=O)CC[C@H](NC(=O)CCCCCCCCCCCCCCCCC(=O)O)C(=O)O)C(=O)O)C(=O)N[C@@H](Cc1ccccc1)C(=O)N[C@H](C(=O)N[C@@H](CC(N)=O)C(=O)N[C@@H](Cc1c[nH]c2ccccc12)C(=O)N[C@@H](CC(C)C)C(=O)N[C@@H](CC(C)C)C(=O)N[C@@H](C)C(=O)N[C@@H](CCC(N)=O)C(=O)N[C@@H](CO)C(=O)NCC(=O)O)C(C)C` [Compound 42] (H-[NMeY][Aib]EGTFISDYSIALDR[Aib]AQ[Aib]K([AEEA-AEEA-γGlu-γGlu-C18 diacid])FVNWLLAQSG-OH), for which the solubility reads like this: (pH 7.4) at least 15 mg/mL; (pH 7.4, aqueous buffer) at least 30 mg/mL.
